A word on the IC50: it is the concentration that gives 50% inhibition.

The first experiment relates to U937 cells. Nature of the experiment: Inhibitory activity against programmed necroptosis of U937 cells induced by TNF-α and Q-VD-Oph (CellTiter-Glo). The class given is cell-based. The note with it: Homo sapiens, U-937, 48 h, Celltiter-Glo survival rate. The protocol:
The U937 cell strain which was used in the following Testing Examples was derived from ATCC, No.: CRL-1593.2, batch No.: 63479999, culture medium: RPMI-1640+10% FBS.
The compound to be tested was dissolved in DMSO, and diluted with DMSO to a series of gradient concentrations. The U937 cells were inoculated in a 384-well plate at 5000/well. The compound at respective concentration was added to each of the wells, and was mixed with the cells homogeneously. Human TNF-α and Q-VD-Oph were added simultaneously to induce programmed necroptosis of the cells. The cells were placed in the incubator at 37° C. and 5% CO2 for further culture of 48 h. Celltiter-Glo reagent was used for detection. After adequate pyrolysis reaction, the chemiluminescence readout value was recorded by a microplate reader. The survival rate was calculated from the detection results using the equation as follows: SR (%)=(RLU compound−RLU blank)/(RLU high control−RLU blank)×100%. The survival rate was plotted against the final concentration of respective compound using a 4-parameter fitting to calculate the inhibitory C50 of the compound against programmed necroptosis of cells induced by TNF-α.
On the technique in general: In ATP-based viability assays light output follows the ATP content of the culture.
`NC(=O)c1ccnc(N2CC3CC(C(=O)N4N=CCC4c4cncc(F)c4)CC3C2)n1` (racemic) [Compound Z-34, 2-(5-(5-(5-fluoropyridin-3-yl)-4,5-dihydro-1H-pyrazole-1-carbonyl)hexahydrocyclopenta[c]pyrrol-2(1H)-yl)pyrimidine-4-carboxamide] had an IC50 of 0.38 µM. Still for that read-out and setting: the value for `COc1cc(N2CCC(C(=O)N3N=CCC3c3ccccc3)C3(CC3)C2)ncn1` (racemic) [Compound Z-40-1, (5-(6-methoxypyrimidin-4-yl)-5-aza-spiro[2.5]oct-8-yl)(5-phenyl-4,5-dihydro-1H-pyrazol-1-yl) ketone] was 0.009 µM; that for `COc1nccc(N2CCC(C(=O)N3N=CCC3c3ccccc3)C3(CC3)C2)n1` (racemic) [Compound Z-41-1, (5-(2-methoxypyrimidin-4-yl)-5-aza-spiro[2.5]oct-8-yl)(5-phenyl-4,5-dihydro-1H-pyrazol-1-yl) ketone] was 0.005 µM.

With `NC(=O)c1cc(N2CCC(C(=O)N3N=CCC3c3ccccc3)C3(CC3)C2)ncn1` (racemic) [Compound Z-43-2, 6-(8-(5-phenyl-4,5-dihydro-1H-pyrazole-1-carbonyl)-5-aza-spiro[2.5]oct-5-yl)pyrimidine-4-carboxamide], the IC50 was 0.045 µM. The same measure, in the same setting: the value for `NC(=O)c1cc(N2CCC(C(=O)N3N=CCC3c3cc(F)cc(F)c3)C3(CC3)C2)ncn1` (racemic) [Compound Z-44-2, 6-(8-(5-(3,5-difluorophenyl)-4,5-dihydro-1H-pyrazole-1-carbonyl)-5-aza-spiro[2.5]oct-5-yl)pyrimidine-4-carboxamide] was 0.022 µM. In turn, `NC(=O)c1ccnc(N2CCC(C(=O)N3N=CCC3c3cc(F)cc(F)c3)C3(CC3)C2)n1` (racemic) [Compound Z-46-1, 2-(8-(5-(3,5-difluorophenyl)-4,5-dihydro-1H-pyrazole-1-carbonyl)-5-aza-spiro[2.5]oct-5-yl)pyrimidine-4-carboxamide] showed an IC50 of 0.004 µM. Compound `NC(=O)c1cc(N2CCC(C(=O)N3N=CCC3c3cncc(F)c3)C3(CC3)C2)ncn1` (racemic) [Compound Z-49-1, 6-(8-(5-(5-fluoropyridin-3-yl)-4,5-dihydro-1H-pyrazole-1-carbonyl)-5-aza-spiro[2.5]oct-5-yl)pyrimidine-4-carboxamide] displayed an IC50 of 0.279 µM. `N#Cc1cc(N2CCC(C(=O)N3N=CCC3c3ccccc3)C3(CC3)C2)ncn1` (racemic) [Compound Z-60-2, 6-(8-(5-phenyl-4,5-dihydro-1H-pyrazole-1-carbonyl)-5-aza-spiro[2.5]oct-5-yl)pyrimidine-4-carbonitrile] had an IC50 of 0.007 µM. Take `NC(=O)c1cc(N2CCC(C(=O)N3N=CCC3c3cc(F)cc(F)c3)CC23CC3)ncn1` (racemic) [Compound Z-64-a, 6-(7-(5-(3,5-difluorophenyl)-4,5-dihydro-1H-pyrazole-1-carbonyl)-4-aza-spiro[2.5]oct-4-yl)pyrimidine-4-carboxamide]: the midpoint of inhibition, the IC50, lay at 0.01 µM. For `CN(C)C(=O)c1cc(N2CC[C@H](C(=O)N3N=CC[C@H]3c3cc(F)cc(F)c3)CC23CC3)ncn1` (racemic) [Compound Z-69, 6-((S)-7-((S)-5-(3,5-difluorophenyl)-4,5-dihydro-1H-pyrazole-1-carbonyl)-4-aza-spiro[2.5]oct-4-yl)-N,N-dimethylpyrimidine-4-carboxamide], the IC50 was found to be 0.127 µM.

`NC(=O)c1ccnc(N2C[C@H]3C[C@H](C(=O)N4N=CC[C@@H]4c4cc(F)ccc4F)C[C@H]3C2)n1` (single isomer, unassigned) [Compound Z-22-2] came in with a 50% inhibitory concentration (IC50) of 0.048 µM. In turn, `N#Cc1cc(N2CC[C@@H](C(=O)N3N=CC[C@@H]3c3cncc(F)c3)CC23CC3)ncn1` (single isomer, unassigned) [Compound Z-65-4] displayed an IC50 of 0.014 µM. On the same count and under the same terms, the value for `Nc1nc(N2CC3CC(C(=O)N4N=CCC4c4ccccc4)CC3C2)ncc1F` (stereo not shown) [Compound Z-14, (2-(4-amino-5-fluoropyrimidin-2-yl)octahydrocyclopenta[c]pyrrol-5-yl)(5-phenyl-4,5-dihydro-1H-pyrazol-1-yl) ketone] was 0.165 µM; that for `NC(=O)c1cc(N2CC3CC(C(=O)N4N=CCC4c4cc(F)cc(F)c4)CC3C2)ncn1` (stereo not shown) [Compound Z-17, 6-(5-(5-(3,5-difluorophenyl)-4,5-dihydro-1H-pyrazole-1-carbonyl)hexahydrocyclopenta[c]pyrrol-2(1H)-yl)pyrimidine-4-carboxamide] was 0.248 µM.

The same experiment, now with this note: human TNF-α + Q-VD-Oph induced necroptosis, 48 h, Celltiter-Glo survival rate.
For the compound `N#Cc1cc(N2CCC(C(=O)N3CCC(c4cc(F)cc(F)c4)=N3)C3(CC3)C2)ncn1` (racemic) [Compound Z-25, 6-(8-(3-(3,5-difluorophenyl)-4,5-dihydro-1H-pyrazole-1-carbonyl)-5-aza-spiro[2.5]oct-5-yl)pyrimidine-4-carbonitrile], the IC50 is 0.004 µM.

On to `N#Cc1cc(N2CCC(C(=O)N3CCC(c4cc(F)cc(F)c4)=N3)C3(CC3)C2)ncn1` (racemic) [Compound Z-26, 6-(8-(3-(3,5-difluorophenyl)-4,5-dihydro-1H-pyrazole-1-carbonyl)-5-aza-spiro[2.5]oct-5-yl)pyrimidine-4-carbonitrile], for which the IC50 came out at 0.244 µM. On the same count and under the same terms, next, `N#Cc1cc(N2CCC(C(=O)N3N=CCC3c3cncc(F)c3)C3(CC3)C2)ncn1` (racemic) [Compound Z-48-1, 6-(8-(5-(5-fluoropyridin-3-yl)-4,5-dihydro-1H-pyrazole-1-carbonyl)-5-aza-spiro[2.5]oct-5-yl)pyrimidine-4-carbonitrile]: 0.03 µM; `N#Cc1cc(N2CCC(C(=O)N3N=CCC3c3cncc(F)c3)C3(CC3)C2)ncn1` (racemic) [Compound Z-48-2, 6-(8-(5-(5-fluoropyridin-3-yl)-4,5-dihydro-1H-pyrazole-1-carbonyl)-5-aza-spiro[2.5]oct-5-yl)pyrimidine-4-carbonitrile]: 0.361 µM.

`N#Cc1cc(N2CCC(C(=O)N3N=CCC3c3cc(F)ccc3F)C3(CC3)C2)ncn1` (racemic) [Compound Z-52-1, 6-(8-(5-(2,5-difluorophenyl)-4,5-dihydro-1H-pyrazole-1-carbonyl)-5-aza-spiro[2.5]oct-5-yl)pyrimidine-4-carbonitrile]: the 50% inhibitory concentration (IC50) turned out to be 0.004 µM.

As for `N#Cc1cc(N2CCC(C(=O)N3N=CCC3c3cc(F)ccc3F)C3(CC3)C2)ncn1` (racemic) [Compound Z-52-2, 6-(8-(5-(2,5-difluorophenyl)-4,5-dihydro-1H-pyrazole-1-carbonyl)-5-aza-spiro[2.5]oct-5-yl)pyrimidine-4-carbonitrile], the IC50 amounted to 0.041 µM. In the case of `NC(=O)c1cc(N2CCC(C(=O)N3N=CCC3c3cc(F)ccc3F)C3(CC3)C2)ncn1` (racemic) [Compound Z-53-1, 6-(8-(5-(2,5-difluorophenyl)-4,5-dihydro-1H-pyrazole-1-carbonyl)-5-aza-spiro[2.5]oct-5-yl)pyrimidine-4-carboxamide], the IC50 came to 0.026 µM.

Consider `NC(=O)c1cc(N2CCC(C(=O)N3N=CCC3c3cc(F)ccc3F)C3(CC3)C2)ncn1` (racemic) [Compound Z-53-2, 6-(8-(5-(2,5-difluorophenyl)-4,5-dihydro-1H-pyrazole-1-carbonyl)-5-aza-spiro[2.5]oct-5-yl)pyrimidine-4-carboxamide], for which the IC50 turned out to be 0.331 µM. As to `N#Cc1cc(N2CC3CCC(C2)C3C(=O)N2N=CCC2c2ccccc2)ncn1` (single isomer, unassigned) [Compound Z-2, 6-(8-(5-phenyl-4,5-dihydro-1H-pyrazole-1-carbonyl)-3-azabicyclo[3.2.1]oct-3-yl)pyrimidine-4-carbonitrile], the half-inhibitory concentration (IC50) was found to be 0.156 µM.

Take `N#Cc1cc(N2CC3CCC(C2)C3C(=O)N2N=CCC2c2ccccc2)ncn1` (single isomer, unassigned) [Compound Z-3, 6-(8-(5-phenyl-4,5-dihydro-1H-pyrazole-1-carbonyl)-3-azabicyclo[3.2.1]oct-3-yl)pyrimidine-4-carbonitrile]: the IC50 was determined as 0.322 µM. For `NC(=O)c1ccnc(N2C[C@@H]3CC(C(=O)N4N=CC[C@@H]4c4cc(F)cc(F)c4)C[C@H]3C2)n1` (single isomer, unassigned) [Compound Z-18-4], the IC50 is 0.062 µM. Take `Nc1nc(N2C[C@H]3C[C@@H](C(=O)N4N=CC[C@@H]4c4cc(F)cc(F)c4)C[C@H]3C2)ncc1F` (single isomer, unassigned) [Compound Z-23-4]: the IC50 came out at 0.041 µM. On to `N#Cc1ccnc(N2C[C@H]3C[C@@H](C(=O)N4N=CC[C@@H]4c4cc(F)cc(F)c4)C[C@H]3C2)n1` (single isomer, unassigned) [Compound Z-32-4], for which the IC50 stood at 0.061 µM. As to `COc1nccc(N2C[C@H]3C[C@H](C(=O)N4N=CC[C@@H]4c4ccccc4)C[C@H]3C2)n1` (single isomer, unassigned) [Compound Z-37-2], the IC50 came out at 0.022 µM. For `N#Cc1cc(N2C[C@H]3C[C@H](C(=O)N4N=CC[C@@H]4c4cc(F)cc(F)c4)C[C@H]3C2)ncn1` (single isomer, unassigned) [Compound Z-38-2], the IC50 came to 0.027 µM.

Turning to `N#Cc1cc(N2C[C@H]3C[C@@H](C(=O)N4N=CC[C@@H]4c4cc(F)cc(F)c4)C[C@H]3C2)ncn1` (single isomer, unassigned) [Compound Z-38-4], the half-inhibitory concentration (IC50) amounted to 0.082 µM.

Regarding `Nc1nc(N2C[C@H]3C[C@@H](C(=O)N4N=CC[C@@H]4c4ccccc4)C[C@H]3C2)ncc1F` (single isomer, unassigned) [Compound Z-39-4], the IC50 came out at 0.088 µM.

(Values after patent publication US20220235032A1 (GENFLEET THERAPEUTICS (SHANGHAI) INC., priority 2019, published 2022).)
